According to patent US12509445B2, “Herbicidally active 4-cyclopropyl-6-[4-(trifluormethyl)pyrazol-1-yl)]pyrimidines” (Bayer Aktiengesellschaft, priority 2019, dated 2025):

Tests used:
Type in all cases: in vivo
Setaria viridis (SETVI) [1] = assay: Pre-emergence herbicidal action
Source text: (§1) The abbreviations used here have the following meanings: • ABUTH Abutilon theophrasti • AMARE Amaranlhus retroflexus • CYPES Cyperus serotinus • ECHCGEchinocloa crus galli • LOLRI Lolium rigidum Gaudin • PHBPU Pharbitis purpurcum • SETVI Setaria viridis • VERPE Veronica persica • ALOMY Alopccurus myosuroides • AVEFA Avena fatua • DIGSA Digitaria sanguinalis • LOLMU Lolium multiflorum • MATIN Matricaria inodora • POLCO Polygonum convolvulus • STEME Stellaria media • VIOTR Viola tricolor
(§2) Seeds of monocotyledonous and dicotyledonous weed plants and crop plants are placed in plastic or organic plant pots and covered with soil. The compounds of the invention, formulated in the form of wettable powders (WP) or as emulsion concentrates (EC), are then applied onto the surface of the covering soil as aqueous suspension or emulsion with addition of 0.5% additive at a water application rate of 600 l/ha (converted). After the treatment, the pots are placed in a greenhouse and kept under good growth conditions for the trial plants. After about 3 weeks, the effect of the preparations is scored visually in comparison with untreated controls as percentages. For example, 100% activity=the plants have died, 0% activity=like control plants.
(§3) The compounds according to the invention were tested by the post-emergence and pre-emergence methods under the conditions described above for comparative purposes with the structurally closest compounds known from WO 2005/089551 A1 (D1).

[2] = system: Echinochloa crus-galli (ECHCG); assay: Pre-emergence herbicidal action
Source text: as §1, §2, §3

[3] = system: Polygonum convolvulus (POLCO); assay: Pre-emergence herbicidal action
Source text: as §1, §2, §3

[4] = system: Alopecurus myosuroides (ALOMY); assay: Pre-emergence herbicidal action
Source text: as §1, §2, §3

Viola tricolor (VIOTR) [5] = assay: Pre-emergence herbicidal action
Source text: as §1, §2, §3

Stellaria media (STEME) [6] = assay: Pre-emergence herbicidal action
Source text: as §1, §2, §3

[7] = system: Matricaria inodora (MATIN); assay: Pre-emergence herbicidal action
Source text: as §1, §2, §3

Setaria viridis (SETVI) [8] = assay: Post-emergence herbicidal action
Experimental: (§4) Seeds of monocotyledonous and dicotyledonous weeds and crop plants are placed in sandy loam in plastic or organic plant pots, covered with soil and cultivated in a greenhouse under controlled growth conditions. 2 to 3 weeks after sowing, the test plants are treated at the one-leaf stage. The compounds of the invention, formulated in the form of wettable powders (WP) or as emulsion concentrates (EC), are then sprayed onto the green parts of the plants as aqueous suspension or emulsion with addition of 0.5% additive at a water application rate of 600 l/ha (converted). After the test plants have been kept in the greenhouse under optimum growth conditions for about 3 weeks, the activity of the preparations is rated visually in comparison to untreated controls. For example, 100% activity=the plants have died, 0% activity=like control plants.
as §1, §3

[9] = system: Abutilon theophrasti (ABUTH); assay: Post-emergence herbicidal action
Experimental: as §4, §1, §3

[10] = system: Echinochloa crus-galli (ECHCG); assay: Post-emergence herbicidal action
Experimental: as §4, §1, §3

[11] = system: Polygonum convolvulus (POLCO); assay: Post-emergence herbicidal action; conditions: 80 g of a.i./ha, comparative test
Experimental: as §4, §1, §3

Avena fatua (AVEFA) [12] = assay: Post-emergence herbicidal action
Experimental: as §4, §1, §3

[13] = system: Alopecurus myosuroides (ALOMY); assay: Post-emergence herbicidal action
Experimental: as §4, §1, §3

Stellaria media (STEME) [14] = assay: Post-emergence herbicidal action
Experimental: as §4, §1, §3

[15] = system: Lolium multiflorum (LOLMU); assay: Post-emergence herbicidal action
Experimental: as §4, §1, §3

[16] = system: Matricaria inodora (MATIN); assay: Post-emergence herbicidal action
Experimental: as §4, §1, §3

[17] = system: harmful plants such as Alopecurus myosuroides, Amaranthus retroflexus, Avena fatua, Echinochloa crus-galli, Matricaria inodora, Pharbitis purpurea, Polygonum …; assay: Pre-emergence herbicidal action, summary in text; conditions: pre-emergence treatment
Source text: as §2
At the same time, some compounds according to the invention leave graminaceous crops such as barley, wheat, rye, millet/sorghum, maize, rice or sugarcane virtually undamaged when applied by the pre-emergence method, even at high active compound dosages. Some compounds are additionally also benign to dicotyledonous crops such as soya, cotton, oilseed rape or sugarbeet.

[18] = system: harmful plants such as Abutilon theophrasti, Alopecurus myosuroides, Amaranthus retroflexus, Avena fatua, Echinochloa crus-galli, Matricaria inodora, Pharbitis …; assay: Post-emergence herbicidal action, summary in text; conditions: post-emergence treatment
Experimental: as §4
In this case, for example, in the post-emergence process, the compounds No. 1-001 and 111-001 have very good herbicidal activity (80% to 100% herbicidal action) against harmful plants such as Abutilon theophrasti, Alopecurus myosuroides, Amaranthus retroflexus, Avena fatua, Echinochloa crus-galli, Matricaria inodora, Pharbitis purpurea, Setaria viridis, Stellaria media, Veronica persica and Viola tricolor at an application rate of 0.32 kg of active substance or less per hectare. At the same time, some compounds according to the invention leave graminaceous crops such as barley, wheat, rye, millet/sorghum, maize, rice or sugarcane virtually undamaged when applied by the post-emergence method, even at high active compound dosages. Some substances are additionally also benign to dicotyledonous crops such as soya, cotton, oilseed rape or sugarbeet.

[19] = system: Abutilon theophrasti (ABUTH); assay: Pre-emergence herbicidal action; conditions: 320 g/ha, visual scoring after about 3 weeks vs untreated controls, 100% = plants have died
Source text: as §1, §2

[20] = system: Amaranthus retroflexus (AMARE); assay: Pre-emergence herbicidal action; conditions: 320 g/ha, visual scoring after about 3 weeks vs untreated controls, 100% = plants have died
Source text: as §1, §2

Avena fatua (AVEFA) [21] = assay: Pre-emergence herbicidal action; conditions: 320 g/ha, visual scoring after about 3 weeks vs untreated controls, 100% = plants have died
Source text: as §1, §2

[22] = system: Pharbitis purpurea (PHBPU); assay: Pre-emergence herbicidal action; conditions: 320 g/ha, visual scoring after about 3 weeks vs untreated controls, 100% = plants have died
Source text: as §1, §2

Veronica persica (VERPE) [23] = assay: Pre-emergence herbicidal action; conditions: 320 g/ha, visual scoring after about 3 weeks vs untreated controls, 100% = plants have died
Source text: as §1, §2

[24] = system: Lolium multiflorum (LOLMU); assay: Pre-emergence herbicidal action; conditions: 320 g/ha, visual scoring after about 3 weeks vs untreated controls, 100% = plants have died
Source text: as §1, §2

[25] = system: Cyperus serotinus (CYPES); assay: Pre-emergence herbicidal action; conditions: 320 g/ha, visual scoring after about 3 weeks vs untreated controls, 100% = plants have died
Source text: as §1, §2

[26] = system: Amaranthus retroflexus (AMARE); assay: Post-emergence herbicidal action; conditions: 320 g/ha, visual rating after about 3 weeks vs untreated controls, 100% = plants have died
Experimental: as §4, §1

[27] = system: Pharbitis purpurea (PHBPU); assay: Post-emergence herbicidal action; conditions: 320 g/ha, visual rating after about 3 weeks vs untreated controls, 100% = plants have died
Experimental: as §4, §1

Viola tricolor (VIOTR) [28] = assay: Post-emergence herbicidal action; conditions: 320 g/ha, visual rating after about 3 weeks vs untreated controls, 100% = plants have died
Experimental: as §4, §1

Veronica persica (VERPE) [29] = assay: Post-emergence herbicidal action; conditions: 320 g/ha, visual rating after about 3 weeks vs untreated controls, 100% = plants have died
Experimental: as §4, §1

[30] = 80 g of a.i./ha, comparative test
[31] = 320 g/ha, visual scoring after about 3 weeks vs untreated controls, 100% = plants have died
[32] = 320 g/ha, visual rating after about 3 weeks vs untreated controls, 100% = plants have died

Structure (SMILES): FC(F)(F)c1cnn(-c2cc(C3CC3)nc(Oc3ccnc(C(F)(F)F)c3)n2)c1 [Example I-001, 4-cyclopropyl-6-[4-(trifluoromethyl)-1H-pyrazol-1-yl]-2-{[2-(trifluoromethyl)pyridin-4-yl]oxy}pyrimidine]
- Herbicidal action against SETVI (Setaria viridis (SETVI) [1]; [30]): 100%
- Pre-emergence action SETVI (Setaria viridis (SETVI) [1]; [31]): 100%
- Herbicidal action against ECHCG [2, 30]: 100%
- Pre-emergence action ECHCG [2, 31]: 100%
- Herbicidal action against POLCO [3, 30]: 100%
- Pre-emergence action POLCO [3, 31]: 100%
- Herbicidal action against ALOMY [4, 30]: 100%
- Pre-emergence action ALOMY [4, 31]: 100%
- Herbicidal action against VIOTR (Viola tricolor (VIOTR) [5]; [30]): 100%
- Pre-emergence action VIOTR (Viola tricolor (VIOTR) [5]; [31]): 100%
- Herbicidal action against STEME (Stellaria media (STEME) [6]; [30]): 100%
- Pre-emergence action STEME (Stellaria media (STEME) [6]; [31]): 100%
- Herbicidal action against MATIN [7, 30]: 100%
- Pre-emergence action MATIN [7, 31]: 100%
- Herbicidal action against SETVI (Setaria viridis (SETVI) [8]; [30]): 90%
- Post-emergence action SETVI (Setaria viridis (SETVI) [8]; [32]): 100%
- Herbicidal action against ABUTH [9, 30]: 90%
- Post-emergence action ABUTH [9, 32]: 100%
- Herbicidal action against ECHCG [10, 30]: 90%
- Post-emergence action ECHCG [10, 32]: 90%
- Herbicidal action against POLCO [11]: 100%
- Herbicidal action against AVEFA (Avena fatua (AVEFA) [12]; [30]): 80%
- Post-emergence action AVEFA (Avena fatua (AVEFA) [12]; [32]): 90%
- Herbicidal action against ALOMY [13, 30]: 80%
- Post-emergence action ALOMY [13, 32]: 90%
- Herbicidal action against STEME (Stellaria media (STEME) [14]; [30]): 90%
- Post-emergence action STEME (Stellaria media (STEME) [14]; [32]): 100%
- Herbicidal action against LOLMU [15, 30]: 90%
- Post-emergence action LOLMU [15, 32]: 100%
- Herbicidal action against MATIN [16, 30]: 90%
- Post-emergence action MATIN [16, 32]: 90%
- herbicidal action against harmful plants (in words) [17]: good herbicidal action
- herbicidal action against harmful plants (in words) [18]: good herbicidal action
- Pre-emergence action ABUTH [19]: 90%
- Pre-emergence action AMARE [20]: 90%
- Pre-emergence action AVEFA (Avena fatua (AVEFA) [21]): 100%
- Pre-emergence action PHBPU [22]: 100%
- Pre-emergence action VERPE (Veronica persica (VERPE) [23]): 100%
- Pre-emergence action LOLMU [24]: 100%
- Pre-emergence action CYPES [25]: 80%
- Post-emergence action AMARE [26]: 90%
- Post-emergence action PHBPU [27]: 90%
- Post-emergence action VIOTR (Viola tricolor (VIOTR) [28]): 100%
- Post-emergence action VERPE (Veronica persica (VERPE) [29]): 100%
